Patent US20100222426A1, “Anti-Bacterial Agents” (priority 2007, published 2010)
≈ marks a conversion by molar mass, not a printed value. Like-named read-outs stand apart in the source and are kept apart here.

Columns and labels:
[1] = test system: M. fortuitum ATCC6841; experiment: MIC assay (MHB microtitre, MTT); type: cell-based; conditions: Mycolicibacterium fortuitum
[2] = test system: M. smegmatis MC2 2700; experiment: MIC assay (MHB microtitre, MTT); type: cell-based; conditions: Mycolicibacterium smegmatis, MC22700
[3] = test system: M. phlei ATCC11758; experiment: MIC assay (MHB microtitre, MTT); type: cell-based; conditions: Mycolicibacterium phlei
[4] = test system: M. smegmatis ATCC14468; experiment: MIC assay (MHB microtitre, MTT); type: cell-based; conditions: Mycolicibacterium smegmatis
[5] = test system: panel of multidrug-resistant strains of Staphylococcus aureus; conditions: inventors' 2006 poster; cited from earlier work
[6] = test system: P. aeruginosa K1119; experiment: MIC assay (MHB microtitre, MTT); type: cell-based; conditions: Pseudomonas aeruginosa
[7] = test system: P. aeruginosa K767; experiment: MIC assay (MHB microtitre, MTT); type: cell-based; conditions: Pseudomonas aeruginosa
[8] = test system: S. aureus ATCC25923; experiment: MIC assay (MHB microtitre, MTT); type: cell-based; conditions: Staphylococcus aureus
[9] = test system: S. aureus SA1199B; experiment: MIC assay (MHB microtitre, MTT); type: cell-based; conditions: Staphylococcus aureus
[10] = test system: S. aureus EMRSA16; experiment: MIC assay (MHB microtitre, MTT); type: cell-based; conditions: Staphylococcus aureus
[11] = test system: S. aureus EMRSA15; experiment: MIC assay (MHB microtitre, MTT); type: cell-based; conditions: Staphylococcus aureus
[12] = test system: Streptococcus pneumoniae; experiment: MIC on IsoSensitest agar / broth, standard laboratory strain; type: cell-based; conditions: ATCC29212; in broth and agar; Streptococcus pneumoniae ATCC 29212; read-out: minimum inhibitory concentration
Experimental: (§1) Compound 7 was tested using bacteria which were recent clinical isolates, or were standard reference controls. The clinical isolates were selected to represent important resistant phenotypes currently prevalent in the UK and worldwide. They included (i) methicillin-resistant Staphylococcus aureus (MRSA), specifically the epidemic (E)MRSA-15 and 16 strains dominant in the UK; (ii) methicillin-resistant coagulase negative staphylococci (i.e. S. epidermidis, S. haemolyticus); (iii) vancomycin-resistant as well as susceptible Enterococcus faecalis and E. faecium; (iv) penicillin-resistant and—susceptible Streptococcus pneumoniae; (v) group A streptococci (=S. pyogenes, which remain universally susceptible to penicillin) and (vi) Clostridium difficile.
(§2) MICs were determined on IsoSensitest agar (ISA) (method of British Society for Antimicrobial Chemotherapy, http://www.bsac.org.uk) or by microdilution in IsoSensitest Broth (ISB). Both media were from Oxoid, Basingstoke, Hants. Plates were variously incubated, at 35-37° C., in air, air enriched with 5% CO2 or under anaerobic conditions.

[13] = test system: NCTC6571 Staphylococcus aureus; experiment: as above; type: cell-based; conditions: in broth and agar, read-out: minimum inhibitory concentration
Experimental: as §1, §2

[14] = test system: Enterococcus faecalis ATCC29212; experiment: as above; type: cell-based; conditions: in broth and agar, read-out: minimum inhibitory concentration
Experimental: as §1, §2

[15] = test system: Group A Streptococcus; experiment: MIC on IsoSensitest agar / broth, clinical isolates; type: cell-based, S. pyogenes; conditions: in broth and agar, read-out: minimum inhibitory concentration
Experimental: as §1, §2

[16] = test system: S. typhimurium L10; experiment: MIC assay (MHB microtitre, MTT); type: cell-based; conditions: Salmonella enterica
[17] = test system: S. typhimurium L354; experiment: MIC assay (MHB microtitre, MTT); type: cell-based; conditions: Salmonella enterica
[18] = test system: penicillin-resistant and penicillin-sensitive Streptococcus pneumoniae; experiment: MIC on IsoSensitest agar / broth, clinical isolates; type: cell-based; conditions: in broth and agar, penicillin-resistant and -sensitive S. pneumoniae, read-out: minimum inhibitory concentration
Experimental: as §1, §2

[19] = test system: vancomycin-resistant and vancomycin-sensitive Enterococcus faecium; experiment: as above; type: cell-based; conditions: in broth and agar, vancomycin-resistant and -sensitive E. faecium, read-out: minimum inhibitory concentration
Experimental: as §1, §2

[20] = test system: methicillin-sensitive Staphylococcus aureus; experiment: as above; type: cell-based; conditions: in broth and agar, methicillin-sensitive S. aureus, read-out: minimum inhibitory concentration
Experimental: as §1, §2

[21] = test system: methicillin-sensitive coagulase-negative Staphylococcus haemolyticus; experiment: as above; type: cell-based; conditions: in broth and agar, methicillin-sensitive S. haemolyticus, read-out: minimum inhibitory concentration
Experimental: as §1, §2

[22] = test system: vancomycin-resistant and vancomycin-sensitive Enterococcus faecalis; experiment: as above; type: cell-based; conditions: in broth and agar, vancomycin-resistant and -sensitive E. faecalis, read-out: minimum inhibitory concentration
Experimental: as §1, §2

[23] = test system: methicillin-sensitive coagulase-negative Staphylococcus epidermidis; experiment: as above; type: cell-based; conditions: in broth and agar, methicillin-sensitive S. epidermidis, read-out: minimum inhibitory concentration
Experimental: as §1, §2

[24] = test system: epidemic methicillin-resistant Staphylococcus aureus 15 and 16; experiment: as above; type: cell-based; conditions: in broth and agar, EMRSA-15 and 16 clinical isolates, read-out: minimum inhibitory concentration
Experimental: as §1, §2

[25] = test system: methicillin-resistant coagulase-negative Staphylococcus epidermidis; experiment: as above; type: cell-based; conditions: in broth and agar, methicillin-resistant S. epidermidis, read-out: minimum inhibitory concentration
Experimental: as §1, §2

[26] = test system: S. aureus RN4220; experiment: MIC assay (MHB microtitre, MTT); type: cell-based; conditions: Staphylococcus aureus
Experimental: Bacteria were cultured on nutrient agar (Oxoid) and incubated for 24 h at 37 ° C. prior to MIC determination. […] An inoculum density of 5×10^5 cfu of S. aureus was prepared in normal saline (9 g/l) by comparison with a 0.5 MacFarland turbidity standard. The inoculum (125 μl) was added to all wells and the microtitre plate was incubated at 37° C. for 18 h. For MIC determination, 20 μl of a 5 mg/ml methanolic solution of 3-[4,5-dimethylthiazol-2-yl]-2,5-diphenyltetrazolium bromide (MTT; Sigma) was added to each of the wells and incubated for 20 min. Bacterial growth was indicated by a colour change from yellow to dark blue. The MIC was recorded as the lowest concentration at which no growth was observed.

[27] = test system: S. aureus XU212; experiment: microbe, parasite or virus in culture; type: cell-based; conditions: Staphylococcus aureus
[28] = has to be stabilised as a salt; cited from earlier work
[29] = test system: MRSA and penicillin-resistant Staphylococcus aureus; conditions: cited from earlier work

NNC(=O)c1ccncc1 [Isoniazid]
MIC [1]: 4 µg/mL (≈ 29.2 µM)
MIC [2]: 2 µg/mL (≈ 14.6 µM)
MIC [3]: 2 µg/mL (≈ 14.6 µM)
MIC [4]: 2 µg/mL (≈ 14.6 µM)

CC[C@@H](CO)NCCN[C@@H](CC)CO [Ethambutol]
MIC [1]: 0.5 µg/mL (≈ 2.45 µM)
MIC [2]: 0.5 µg/mL (≈ 2.45 µM)
MIC [3]: 0.5 µg/mL (≈ 2.45 µM)
MIC [4]: 0.5 µg/mL (≈ 2.45 µM)

O=c1c2cc(O)ccc2oc2cccc(O)c12 [1,7-dihydroxyxanthone]
minimum inhibitory concentration [5]: 128 to 256 µg/mL

CCn1cc(C(=O)O)c(=O)c2cc(F)c(N3CCNCC3)cc21 [Norfloxacin, norfloxacin, reference compound]
MIC [6]: 2 µg/mL (≈ 6.26 µM)
MIC ([7]; P. aeruginosa K767, read-out: MIC): 2 µg/mL (≈ 6.26 µM)
MIC [8]: 1 µg/mL (≈ 3.13 µM)
MIC [9]: 32 µg/mL (≈ 100 µM)

Cc1onc(-c2ccccc2)c1C(=O)N[C@@H]1C(=O)N2[C@@H]1SC(C)(C)[C@@H]2C(=O)O [Oxacillin, reference compound]
MIC [10]: 512 µg/mL (≈ 1280 µM)
MIC [11]: 16 µg/mL (≈ 39.9 µM)

CCC(C)C(=O)c1c(O)cc(O)cc1OC/C=C(\C)CCC=C(C)C (centres unmarked) [Compound 7]
MIC [1]: 8 µg/mL (≈ 23.1 µM)
MIC [6]: > 512 µg/mL
MIC [12]: 4 µg/mL (≈ 11.5 µM)
MIC [13]: 4 µg/mL (≈ 11.5 µM)
MIC [14]: 4 µg/mL (≈ 11.5 µM)
MIC [2]: 4 µg/mL (≈ 11.5 µM)
MIC [15]: 4 µg/mL (≈ 11.5 µM)
MIC [16]: > 512 µg/mL
MIC ([7]; K767): > 512 µg/mL
MIC [3]: 4 µg/mL (≈ 11.5 µM)
MIC [4]: 4 µg/mL (≈ 11.5 µM)
MIC [10]: 1 µg/mL (≈ 2.89 µM)
MIC [17]: > 512 µg/mL
MIC [8]: 1 µg/mL (≈ 2.89 µM)
MIC [11]: 0.5 µg/mL (≈ 1.44 µM)
MIC [18]: 2 to 4 µg/mL (≈ 5.77 to 11.5 µM)
MIC [19]: 2 to 4 µg/mL (≈ 5.77 to 11.5 µM)
MIC [20]: 2 to 8 µg/mL (≈ 5.77 to 23.1 µM)
MIC [21]: 16 µg/mL (≈ 46.2 µM)
MIC [22]: 4 µg/mL (≈ 11.5 µM)
MIC [23]: 2 to 4 µg/mL (≈ 5.77 to 11.5 µM)
MIC [24]: 2 to 4 µg/mL (≈ 5.77 to 11.5 µM)
MIC [25]: 2 to 8 µg/mL (≈ 5.77 to 23.1 µM)
MIC [9]: 1 µg/mL (≈ 2.89 µM)
MIC [26]: 1 µg/mL (≈ 2.89 µM)
MIC [27]: 1 µg/mL (≈ 2.89 µM)

CC[C@H]1OC(=O)[C@H](C)[C@@H](O[C@H]2C[C@@](C)(OC)[C@@H](O)[C@H](C)O2)[C@H](C)[C@@H](O[C@@H]2O[C@H](C)C[C@H](N(C)C)[C@H]2O)[C@](C)(O)C[C@@H](C)C(=O)[C@H](C)[C@@H](O)[C@]1(C)O [Erythromycin, erythromycin, reference compound]
MIC [26]: 128 µg/mL (≈ 174 µM)

CC(C)=CCC[C@]1(C)[C@@H](CC=C(C)C)C[C@@]2(CC=C(C)C)C(=O)[C@]1(C(=O)C(C)C)C(=O)C(CC=C(C)C)=C2O [Hyperforin]
stability [28]: unstable
Minimum Inhibitory Concentration (MIC) [29]: 0.1 to 0.5 µg/mL
